Assay results: patent US20070059688A1, “Gastrointestinal chemosensory receptors” (priority 2001, published 2007)
Entries after “also recorded” stand apart in the source; their conditions may differ.

Assays:
[1] = system: STC-1 cells; assay: Ca2+ imaging of individual STC-1 cells (fura 2-AM) after bitter tastants; format: cell-based, mouse; details: for [Ca2+]i response in STC-1 cells (in words): single cells, FIG. 9 concentrations: PTC 3 mM, 6-PTU 1 mM, caffeine 10 mM, nicotine 10 mM, cycloheximide 50 μM
Method: The [Ca^2+]i of individual cells was measured before and after exposure to single concentrations of bitter tastants. Top panel. […] The values in parenthesis are the number of cells analyzed. Lower panels. Individual traces of [Ca^2+], from two cells exposed to denatonium benzoate or cycloheximide.
Due to heterogeneity of the STC-1 cell population, we monitored responses in the intracellular Ca^2+ concentration ([Ca^2+]i) using Ca^2+ imaging of individual cells and tested the effect of several compounds widely used in bitter taste signaling.
The concentrations of denatonium used in these experiments are similar to those used for eliciting second messenger changes and ion channel activity in taste tissues.
Since a low level of mT2R5 expression was also detected in STC-1 cells, we determined if cycloheximide stimulates a [Ca^2+]i response in these cells.

[2] = system: IEC-18 cells; assay: [Ca2+]i changes in IEC-18 cells; format: cell-based, rat; details: FIG. 10B: 5 mM denatonium benzoate, vasopressin as positive control
Method: (§1) (A) STC-1 cells, grown on cover slips, were washed with a buffer solution (buffer A) consisting of Hanks' balanced salt solution supplemented with 0.03% NaHCO3, 1.3 mM CaCl2, 0.5 mM MgCl2, 0.4 mM MgSO4, and 0.1% BSA. After washing, cells were incubated with […] methyl ester (fura-2/AME) from a stock of 1 mM in DMSO for 30 min at room temperature. Cells were then washed again with buffer A and left at room temperature for an additional 30 min. Each cover slip was placed in a glass cuvette with 2 ml of buffer A, and fluorescence was measured continuously in a Hitachi F-2000 fluorospectrophotometer with excitation wavelength of 340 and 380 nm and an emission wavelength of 510 nm. The bars represent the increase in [Ca^2+]i in response to various concentrations of denatonium benzoate (DB), as indicated. (B) [Ca^2+]i changes in IEC-18 cells, a normal rat intestinal epithelial cell line, after sequential addition of 5 mM denatonium benzoate (DB) followed by 50 nM vasopressin (VP), added as a positive control. (C) [Ca^2+]i changes in Swiss 3T3 cells after sequential addition of 5 mM denatonium benzoate (DB) followed by 10 nM bombesin (Bom), added as a positive control. The changes in [Ca^2+]i in IEC-18 and Swiss 3T3 cells were measured as described above for STC-1 cells.

[3] = target: T1, chimeric mT2R5 receptors containing the NH2-terminal 39 amino acids of rhodopsin (Mus musculus, UniProt Q9JKT4); details: HEK-293 cells; Chandrashekar et al, Cell 100:703-711 (2000); cited from earlier work
T1 construct: host or cells: HEK-293 (heterologous expression)
T1 sequence (Q9JKT4 with tags, fused parts or gaps): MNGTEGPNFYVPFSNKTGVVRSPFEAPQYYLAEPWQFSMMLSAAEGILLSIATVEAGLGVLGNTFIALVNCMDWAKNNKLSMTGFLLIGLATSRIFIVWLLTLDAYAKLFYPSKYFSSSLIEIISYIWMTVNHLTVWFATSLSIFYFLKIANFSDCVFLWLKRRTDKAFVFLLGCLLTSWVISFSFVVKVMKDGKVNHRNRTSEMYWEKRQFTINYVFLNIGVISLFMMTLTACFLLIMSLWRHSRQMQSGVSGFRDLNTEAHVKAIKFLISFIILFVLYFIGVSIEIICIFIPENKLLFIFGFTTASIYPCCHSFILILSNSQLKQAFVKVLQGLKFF

[4] = system: STC-1 cells; assay: [Ca2+]i in STC-1 cells on cover slips, fura-2 fluorospectrophotometry; format: cell-based, mouse; details: various concentrations of denatonium benzoate, FIG. 10A
Method: as §1

Row | SMILES | [Ca2+]i response in STC-1 cells (in words) [1] | [Ca2+]i response in IEC-18 cells (in words) [2] | also measured
1 | CCCc1cc(=O)[nH]c(=S)[nH]1 [6-n-propil-2-thiouracil] | robust [Ca^2+]i responses; also recorded: promoted rapid [Ca^2+]i responses | not in other well studied cell lines such as IEC-18 or 3T3 | –
2 | CN1[C@@H]2CC[C@H]1C[C@@H](OC(=O)C(CO)c1ccccc1)C2 (some centres unmarked) [atropine] | did not induce any detectable change | – | –
3 | O=C(O)/C=C/c1ccc(O)c(O)c1 [caffeic acid] | did not induce any detectable change | – | –
4 | Cn1c(=O)c2c(ncn2C)n(C)c1=O [caffeine] | robust [Ca^2+]i responses | – | –
5 | C[C@@H]1C[C@@H]([C@H](O)CC2CC(=O)NC(=O)C2)C(=O)[C@@H](C)C1 [cycloheximide] | induced oscillatory changes in [Ca^2+]i in a small sub-population of STC-1 cells; also recorded: promoted rapid [Ca^2+]i responses | not in other well studied cell lines such as IEC-18 or 3T3 | mT2R5 response, increase in [Ca2+]i (in words) [3]: responds
6 | CC[N+](CC)(CC(=O)Nc1c(C)cccc1C)Cc1ccccc1 [denatonium benzoate] | rapid and dose-dependent elevation | not in other well studied cell lines such as IEC-18 or 3T3 | cells with increase in [Ca2+]i ([1]; 1 mM, percentage of the STC-1 population): 33%; cells with marked increase in [Ca2+]i ([1]; 10 mM, percentage of STC-1 cells examined): 97%; [Ca2+]i response in STC-1 cells (in words) ([1]; listed as denatonium): promoted rapid [Ca^2+]i responses; increase in [Ca2+]i in STC-1 cells (in words) [4]: dose-dependent increase
7 | CN1CCCC1c1cccnc1 (centres unmarked) [nicotine] | robust [Ca^2+]i responses | – | –
8 | NC(=S)Nc1ccccc1 [phenylthiocarbamide] | robust [Ca^2+]i responses; also recorded: promoted rapid [Ca^2+]i responses | not in other well studied cell lines such as IEC-18 or 3T3 | –
